Results taken from patent publication US12083101B2, “Biaryl derivatives as YAP/TAZ-TEAD protein-protein interaction inhibitors” (Novartis AG, priority 2020, dated 2024).

What was measured:
[1] = molecular target: Avi-humanTEAD4 217-434 / Cy5 labeled humanYAP 60-100 (Homo sapiens (Human), UniProt Q15561); experiment: TR-FRET YAP-TEAD4 in-vitro biochemical assay; assay type: binding; conditions: 1 nM Avi-humanTEAD4 217-434, 20 nM Cy5-humanYAP 60-100, 1 h room temperature
[2] = system: NCI-H2052 Tet-On shYAP_2371 pLenti6 MCAT_Luc cells (YAP-dependent transcription); experiment: YAP reporter gene activity assay (MCAT-luciferase), NCI-H2052; assay type: cell-based; conditions: Homo sapiens, NCI-H2052, 24 h, 24 hours incubation, BrightGlo luminescence
Outline: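 NCI-H2052 cells carrying an MCAT-luciferase reporter and a tetracycline-inducible YAP 3′UTR shRNA were treated with eleven 2-fold compound dilutions (0.1% DMSO) for 24 h at 37 °C. BrightGlo luminescence was background-subtracted and expressed as % of DMSO control. IC50 came from a four-parameter fit; MKN-45/Ubc-luc cells served as the specificity counterscreen.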

[3] = system: NCI-H2052 Tet-On shYAP_2371 pLenti6 MCAT_Luc cells; experiment: Proliferation assay (resazurin), NCI-H2052; assay type: cell-based; conditions: Homo sapiens, NCI-H2052, 72 h, 72 hours incubation
Outline: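 The NCI-H2052 line carries a Tet-inducible shRNA against the YAP1 3′UTR and an MCAT luciferase reporter. The day after seeding, it received eleven 2-fold compound dilutions at 0.1% DMSO, and viability was read by resazurin fluorescence.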

MKN-45/Ubc-luc cells [4] = experiment: Proliferation assay (resazurin), MKN-45; assay type: cell-based; conditions: Homo sapiens, 72 hours incubation
MKN-45/Ubc-luc cells [5] = experiment: Reporter gene specificity control (Ubc-luciferase), MKN-45; conditions: Homo sapiens, MKN-45, 24 h, read-out: Reporter gene assay MKN-45 IC50 [μM], MKN-45/Ubc-luc cells (YAP deleted, specificity control), 24 hours incubation
Description: As a specificity control, MKN-45 cells were stably transduced with a Ubc-Luc reporter construct, in which constitutive expression of firefly luciferase is driven by the promoter of the ubiquitin C housekeeping gene.
Stock solutions of compounds were prepared at a concentration of 10 mM in DMSO and stored at 4° C. Where necessary to afford a full dose-response curve, the stock solutions were pre-diluted in DMSO to 1'000-fold the desired reduced start concentration. On the day after cell seeding, eleven 2-fold serial dilutions of each compound were dispensed directly into the cell assay plates using a HP 300D non-contact Digital Dispenser (TECAN, Mannedorf, Switzerland). The final concentration of DMSO was normalized to 0.1% in all wells.
The ability of compounds to inhibit YAP-dependent transcription was assessed in NCI-H2052 Tet-On shYAP_2371 pLenti6 MCAT_Luc cells, while specificity (lack of unspecific inhibition of luciferase expression of activity) was assessed in MKN-45/Ubc-luc cells. […] Following incubation for 24 hours at 37° C., compound-mediated modulation of reporter-gene activity was quantified 5 min after addition of 20 μl BrightGlo (Promega, Cat #E2620), by measuring luminescence intensity on a multi-mode plate-reader (TECAN, Männedorf, Switzerland, Integration time 100 ms). For data analysis, the assay background value determined in wells containing medium, but no cells, was subtracted from all data points. Dose-dependent compound effects were expressed as % of vehicle-treated control (luminescence signal produced by cells receiving DMSO only) and IC50s calculated using a four-parametric fit model.

Sequence of Avi-humanTEAD4 217-434 / Cy5 labeled humanYAP 60-100 (Q15561 217-434): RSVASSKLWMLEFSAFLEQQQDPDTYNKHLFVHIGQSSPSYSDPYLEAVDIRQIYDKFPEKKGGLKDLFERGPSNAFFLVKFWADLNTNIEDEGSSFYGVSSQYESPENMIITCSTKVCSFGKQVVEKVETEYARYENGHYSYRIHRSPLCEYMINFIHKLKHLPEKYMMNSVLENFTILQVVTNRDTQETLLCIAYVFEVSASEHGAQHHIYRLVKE

`CNC[C@]1(c2ccccc2)Oc2cc(F)c(Cl)c(-c3c(C(N)=O)ccc(OCCO)c3F)c2[C@@H]1C` (atropisomer, axis not shown) [Example 110, 2-((2S,3S,4S)-5-Chloro-6-fluoro-3-methyl-2-((methylamino)methyl)-2-phenyl-2,3-dihydrobenzofuran-4-yl)-3-fluoro-4-(2-hydroxyethoxy)benzamide] was tested, and the IC50 [1] was 0.001 µM, the IC50 [2] was 0.014 µM and the GI50 [3] was 0.027 µM. The GI50 (MKN-45/Ubc-luc cells [4]) was > 4 µM and the IC50 (MKN-45/Ubc-luc cells [5]) was > 4 µM.
`CNC[C@]1(c2ccccc2)Oc2cc(F)c(Cl)c(-c3c(C(=O)NC)ccc(OCCO)c3F)c2[C@@H]1C` (atropisomer, axis not shown) [Example 113, 2-((2S,3S,4S)-5-Chloro-6-fluoro-3-methyl-2-((methylamino)methyl)-2-phenyl-2,3-dihydrobenzofuran-4-yl)-3-fluoro-4-(2-hydroxyethoxy)-N-methylbenzamide] showed an IC50 [1] of 0.002 µM, an IC50 [2] of 0.021 µM and a GI50 [3] of 0.029 µM. For the same compound, the GI50 (MKN-45/Ubc-luc cells [4]) was > 10 µM and the IC50 (MKN-45/Ubc-luc cells [5]) was > 10 µM.
With `C[C@H](O)COc1ccc(C(N)=O)c(-c2c(Cl)c(F)cc3c2[C@H](C)[C@@](CN[C@H]2CC[C@](C)(O)CC2)(c2ccccc2)O3)c1F` (atropisomer, axis not shown) [Example 114a, 2-((2S,3S,4S)-5-chloro-6-fluoro-2-((((trans)-4-hydroxy-4-methylcyclohexyl)amino)methyl)-3-methyl-2-phenyl-2,3-dihydrobenzofuran-4-yl)-3-fluoro-4-((S)-2-hydroxypropoxy)benzamide] the IC50 [1] was 0.002 µM, the IC50 [2] was 0.018 µM and the GI50 [3] was 0.023 µM. For the same compound, the GI50 (MKN-45/Ubc-luc cells [4]) was > 10 µM and the IC50 (MKN-45/Ubc-luc cells [5]) was > 10 µM.
Work on `C[C@H](O)COc1ccc(C(N)=O)c(-c2c(Cl)c(F)cc3c2[C@H](C)[C@@](CN[C@H]2CC[C@@](C)(O)CC2)(c2ccccc2)O3)c1F` (atropisomer, axis not shown) [Example 114b, 2-((2S,3S,4S)-5-chloro-6-fluoro-2-((((cis)-4-hydroxy-4-methylcyclohexyl)amino)methyl)-3-methyl-2-phenyl-2,3-dihydrobenzofuran-4-yl)-3-fluoro-4-((S)-2-hydroxypropoxy)benzamide] yielded an IC50 [1] of 0.002 µM, an IC50 [2] of 0.023 µM and a GI50 [3] of 0.034 µM. For the same compound, the GI50 (MKN-45/Ubc-luc cells [4]) was > 10 µM and the IC50 (MKN-45/Ubc-luc cells [5]) was > 10 µM.
With `C[C@H]1c2c(cc(F)c(Cl)c2-c2c(C(N)=O)ccc(OCCO)c2F)O[C@]1(CN[C@H]1CC[C@](C)(O)CC1)c1ccccc1` (atropisomer, axis not shown) [Example 117a, 2-((2S,3S,4S)-5-chloro-6-fluoro-2-((((trans)-4-hydroxy-4-methylcyclohexyl)amino)methyl)-3-methyl-2-phenyl-2,3-dihydrobenzofuran-4-yl)-3-fluoro-4-(2-hydroxyethoxy)benzamide] the IC50 [1] was < 0.001 µM, the IC50 [2] was 0.015 µM and the GI50 [3] was 0.014 µM. For the same compound, the GI50 (MKN-45/Ubc-luc cells [4]) was > 10 µM and the IC50 (MKN-45/Ubc-luc cells [5]) was > 10 µM.
Work on `C[C@H]1c2c(cc(F)c(Cl)c2-c2c(C(N)=O)ccc(OCCO)c2F)O[C@]1(CN[C@H]1CC[C@@](C)(O)CC1)c1ccccc1` (atropisomer, axis not shown) [Example 117b, 2-((2S,3S,4S)-5-chloro-6-fluoro-2-((((cis)-4-hydroxy-4-methylcyclohexyl)amino)methyl)-3-methyl-2-phenyl-2,3-dihydrobenzofuran-4-yl)-3-fluoro-4-(2-hydroxyethoxy)benzamide] yielded an IC50 [1] of 0.001 µM, an IC50 [2] of 0.016 µM and a GI50 [3] of 0.03 µM. The GI50 (MKN-45/Ubc-luc cells [4]) was > 10 µM and the IC50 (MKN-45/Ubc-luc cells [5]) was > 10 µM.
`C[C@H]1c2c(cc(F)c(Cl)c2-c2c(C(N)=O)ccc(OCCO)c2F)O[C@]1(CNC1CCC1)c1ccccc1` (atropisomer, axis not shown) [Example 118, 2-((2S,3S,4S)-5-chloro-2-((cyclobutylamino)methyl)-6-fluoro-3-methyl-2-phenyl-2,3-dihydrobenzofuran-4-yl)-3-fluoro-4-(2-hydroxyethoxy)benzamide] was tested, and the IC50 [1] was 0.001 µM, the IC50 [2] was 0.01 µM and the GI50 [3] was 0.015 µM. The GI50 (MKN-45/Ubc-luc cells [4]) was > 5.5 µM and the IC50 (MKN-45/Ubc-luc cells [5]) was > 5.5 µM.
In the case of `C[C@H]1c2c(cc(F)c(Cl)c2-c2c(C(N)=O)cnc(OCCO)c2F)O[C@]1(CN[C@H]1CC[C@](C)(O)CC1)c1ccccc1` (atropisomer, axis not shown) [Example 119], the IC50 [1] is reported as 0.002 µM, the IC50 [2] is reported as 0.022 µM and the GI50 [3] is reported as 0.028 µM. The GI50 (MKN-45/Ubc-luc cells [4]) was > 10 µM and the IC50 (MKN-45/Ubc-luc cells [5]) was > 10 µM.
Compound `C[C@H](O)COc1ccc(C#N)c(-c2c(Cl)c(F)cc3c2[C@H](C)[C@@](CN[C@H]2CC[C@](C)(O)CC2)(c2ccccc2)O3)c1F` (atropisomer, axis not shown) [Example 120, 2-((2S,3S,4S)-5-Chloro-6-fluoro-2-((((trans)-4-hydroxy-4-methylcyclohexyl)amino)methyl)-3-methyl-2-phenyl-2,3-dihydrobenzofuran-4-yl)-3-fluoro-4-((S)-2-hydroxypropoxy)benzonitrile] has an IC50 [1] of 0.003 µM, an IC50 [2] of 0.02 µM and a GI50 [3] of 0.022 µM. For the same compound, the GI50 (MKN-45/Ubc-luc cells [4]) was > 10 µM and the IC50 (MKN-45/Ubc-luc cells [5]) was > 10 µM.
Compound `CNC(=O)c1ccc(OCCO)c(F)c1-c1c(Cl)c(F)cc2c1[C@H](C)[C@@](CN[C@H]1CC[C@](C)(O)CC1)(c1ccccc1)O2` (atropisomer, axis not shown) [Example 121, 2-((2S,3S,4S)-5-Chloro-6-fluoro-2-((((trans)-4-hydroxy-4-methylcyclohexyl)amino)methyl)-3-methyl-2-phenyl-2,3-dihydrobenzofuran-4-yl)-3-fluoro-4-(2-hydroxyethoxy)-N-methylbenzamide] has an IC50 [1] of 0.002 µM, an IC50 [2] of 0.02 µM and a GI50 [3] of 0.036 µM. For the same compound, the GI50 (MKN-45/Ubc-luc cells [4]) was > 10 µM and the IC50 (MKN-45/Ubc-luc cells [5]) was > 10 µM.
Work on `CNC[C@]1(c2ccccc2)Oc2cc(F)c(Cl)c(-c3c(C(=O)NC)ccc(OC[C@H](C)O)c3F)c2[C@@H]1C` (atropisomer, axis not shown) [Example 122, 2-((2S,3S,4S)-5-Chloro-6-fluoro-3-methyl-2-((methylamino)methyl)-2-phenyl-2,3-dihydrobenzofuran-4-yl)-3-fluoro-4-((S)-2-hydroxypropoxy)-N-methylbenzamide] yielded an IC50 [1] of 0.006 µM, an IC50 [2] of 0.085 µM and a GI50 [3] of 0.059 µM. For the same compound, the GI50 (MKN-45/Ubc-luc cells [4]) was > 10 µM and the IC50 (MKN-45/Ubc-luc cells [5]) was > 10 µM.
Work on `C[C@H](O)COc1ccc(C(N)=O)c(-c2c(Cl)c(F)cc3c2[C@H](C)[C@@](CN)(c2ccccc2)O3)c1F` (atropisomer, axis not shown) [Example 123, 2-((2S,3S,4S)-2-(Aminomethyl)-5-chloro-6-fluoro-3-methyl-2-phenyl-2,3-dihydrobenzofuran-4-yl)-3-fluoro-4-((S)-2-hydroxypropoxy)benzamide] yielded an IC50 [1] of 0.002 µM, an IC50 [2] of 0.025 µM and a GI50 [3] of 0.044 µM. The GI50 (MKN-45/Ubc-luc cells [4]) was > 10 µM and the IC50 (MKN-45/Ubc-luc cells [5]) was > 10 µM.
`C[C@H]1c2c(cc(F)c(Cl)c2-c2c(OCCO)ccc(F)c2F)O[C@]1(CN)c1ccccc1` (atropisomer, axis not shown) [Example 124, 2-(2-((2S,3S,4S)-2-(Aminomethyl)-5-chloro-6-fluoro-3-methyl-2-phenyl-2,3-dihydrobenzofuran-4-yl)-3,4-difluorophenoxy)ethan-1-ol] was tested, and the IC50 [1] was 0.011 µM, the IC50 [2] was 1.23 µM and the GI50 [3] was 1.07 µM. For the same compound, the GI50 (MKN-45/Ubc-luc cells [4]) was > 10 µM and the IC50 (MKN-45/Ubc-luc cells [5]) was > 10 µM.
`CNC[C@]1(c2cccc(O)n2)Oc2cc(F)c(Cl)c(-c3c(C(N)=O)ccc(OC)c3F)c2[C@@H]1C` (atropisomer, axis not shown) [Example 125, 2-((2R,3S,4S)-5-Chloro-6-fluoro-2-(6-hydroxypyridin-2-yl)-3-methyl-2-((methylamino)methyl)-2,3-dihydrobenzofuran-4-yl)-3-fluoro-4-methoxybenzamide] gave an IC50 [1] of 0.011 µM, an IC50 [2] of 0.671 µM and a GI50 [3] of 1.18 µM. For the same compound, the GI50 (MKN-45/Ubc-luc cells [4]) was > 7.5 µM and the IC50 (MKN-45/Ubc-luc cells [5]) was > 10 µM.
`COCCOc1ccc(C(N)=O)c(-c2c(Cl)c(F)cc3c2[C@H](C)[C@@](CN[C@H]2CC[C@](C)(O)CC2)(c2ccccn2)O3)c1F` (atropisomer, axis not shown) [Example 126, 2-((2R,3S,4S)-5-Chloro-6-fluoro-2-((((trans)-4-hydroxy-4-methylcyclohexyl)amino)methyl)-3-methyl-2-(pyridin-2-yl)-2,3-dihydrobenzofuran-4-yl)-3-fluoro-4-(2-methoxyethoxy)benzamide] showed an IC50 [1] of 0.002 µM, an IC50 [2] of 0.045 µM and a GI50 [3] of 0.076 µM. For the same compound, the GI50 (MKN-45/Ubc-luc cells [4]) was > 10 µM and the IC50 (MKN-45/Ubc-luc cells [5]) was > 10 µM.
Compound `COc1ccc(C(N)=O)c(-c2c(Cl)c(F)cc3c2[C@H](C)[C@@](CN[C@H]2CC[C@](C)(O)CC2)(c2cccnc2)O3)c1F` (atropisomer, axis not shown) [Example 127, 2-((2S,3S,4S)-5-Chloro-6-fluoro-2-((((trans)-4-hydroxy-4-methylcyclohexyl)amino)methyl)-3-methyl-2-(pyridin-3-yl)-2,3-dihydrobenzofuran-4-yl)-3-fluoro-4-methoxybenzamide] has an IC50 [1] of 0.006 µM, an IC50 [2] of 0.065 µM and a GI50 [3] of 0.141 µM. For the same compound, the GI50 (MKN-45/Ubc-luc cells [4]) was > 10 µM and the IC50 (MKN-45/Ubc-luc cells [5]) was > 10 µM.
